Measured values: patent US9884063B2, “Amido-substituted azole compounds” (Bayer Pharma Aktiengesellschaft, priority 2014, dated 2018)
pIC50: −log10 of the molar value.

Target: T1, TNKS1 (Homo sapiens, UniProt O95271)
T1 sequence (O95271 1-1327): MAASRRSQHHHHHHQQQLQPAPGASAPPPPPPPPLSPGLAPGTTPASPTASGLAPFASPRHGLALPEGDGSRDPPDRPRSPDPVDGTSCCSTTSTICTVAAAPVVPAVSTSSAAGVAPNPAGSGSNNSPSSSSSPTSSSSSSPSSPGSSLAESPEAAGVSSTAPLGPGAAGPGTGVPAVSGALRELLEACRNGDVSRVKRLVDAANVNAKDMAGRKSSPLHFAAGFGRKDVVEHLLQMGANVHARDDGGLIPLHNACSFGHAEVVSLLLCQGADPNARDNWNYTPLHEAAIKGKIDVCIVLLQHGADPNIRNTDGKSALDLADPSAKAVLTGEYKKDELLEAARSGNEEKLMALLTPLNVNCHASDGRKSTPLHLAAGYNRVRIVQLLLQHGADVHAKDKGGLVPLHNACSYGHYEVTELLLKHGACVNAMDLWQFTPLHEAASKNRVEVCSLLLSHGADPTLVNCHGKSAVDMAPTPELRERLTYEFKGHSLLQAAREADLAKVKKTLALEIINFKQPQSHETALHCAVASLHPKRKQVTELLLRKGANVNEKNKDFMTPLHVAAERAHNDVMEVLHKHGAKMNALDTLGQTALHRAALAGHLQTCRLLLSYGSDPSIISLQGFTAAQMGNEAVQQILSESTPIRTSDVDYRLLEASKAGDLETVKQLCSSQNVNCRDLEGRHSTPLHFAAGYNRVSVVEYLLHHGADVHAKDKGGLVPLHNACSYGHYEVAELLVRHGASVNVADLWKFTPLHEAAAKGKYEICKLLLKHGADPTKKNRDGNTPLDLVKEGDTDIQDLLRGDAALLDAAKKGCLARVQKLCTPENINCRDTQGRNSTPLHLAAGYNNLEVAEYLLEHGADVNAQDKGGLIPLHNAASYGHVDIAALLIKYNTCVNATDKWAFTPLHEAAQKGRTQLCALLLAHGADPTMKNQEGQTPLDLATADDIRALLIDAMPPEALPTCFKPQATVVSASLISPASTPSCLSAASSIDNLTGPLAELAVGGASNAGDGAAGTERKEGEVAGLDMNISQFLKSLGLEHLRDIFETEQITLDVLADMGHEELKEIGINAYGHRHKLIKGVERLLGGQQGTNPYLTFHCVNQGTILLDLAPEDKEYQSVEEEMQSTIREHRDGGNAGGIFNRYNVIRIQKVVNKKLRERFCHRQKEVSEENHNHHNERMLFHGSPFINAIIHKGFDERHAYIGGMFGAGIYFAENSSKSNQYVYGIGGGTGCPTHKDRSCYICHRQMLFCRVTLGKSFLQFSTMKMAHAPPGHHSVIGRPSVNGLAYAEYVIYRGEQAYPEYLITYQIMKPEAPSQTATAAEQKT
Assay: Modified TNKS1 Assay 3 (BPS kit #80573, biotin-NAD+, 96 well)
Assay type: biochemical
Settings: human TNKS1, BPS kit #80573, 96 well
Procedure, shortened: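 Chemiluminescent assay of TNKS1-catalysed ribosylation of a protein substrate with biotin-labelled NAD+, detected via streptavidin-HRP; run per kit protocol. Inhibition lowers the signal, and IC50 is the compound concentration halving the normalised readout.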

pIC50: 7.40
SMILES: O=C(Nc1ccc(NC(=O)c2[nH]cnc2C(=O)NCCN2CCCCC2)cn1)c1ccc(F)cc1Cl [Example 110, N^5-{6-[(2-chloro-4-fluorobenzoyl)amino]pyridin-3-yl}-N^4-[2-(piperidin-1-yl)ethyl]-1H-imidazole-4,5-dicarboxamide]
